# Source: patent US20100212031A1, “Method for improving efficiencies in livestock production” (priority 2002, published 2010)
# “And” between values parts separate entries of the source, which are not always exact repeats. Equal values may be shown once. Marks after values point to notes of the source that are not given here.
# Tests used:
# [1] = Test 4 / Group 3 feedlot study: backfat by serial ultrasound, steers by leptin (ob) genotype and drug status; format: in vivo, cattle (steers of mixed breed); conditions: Drug group; for Backfat, mm d 1: 1st measure (1 days on feed); for Backfat, mm d 1 / Backfat, mm d 2 / Backfat, mm d 3: before drug; for Backfat, mm d 2: 2nd measure (60 days on feed); for Backfat, mm d 3: 3rd measure (104 days on feed); for Backfat, mm d 4: 4th measure (129 days on feed), after drug; for d to 10 mm (days needed to reach target backfat) / d to 12 mm (days needed to reach target backfat) / d to 14 mm (days needed to reach target backfat): from fitted model; for Rate (k, rate of backfat; fitted nonlinear parameter): model Y = 3.88e^kt, animal as experimental unit
# Method: (§1) In test 4, 4172 hd of animals randomized to treatment and pen were housed in 48 pens, such that a study was conducted to assess the effect of ob genotype on fat growth, body weight growth, and carcass parameters; as well as any potential interaction with the beta andrenergic agonist Zilpaterol. […] 7.89 mm in the CT animals, and 7.63 mm in CC animals; with an overall statistical genotype effect of P=0.01. […] 494.6 lbs for CT animals, and 479.5 lbs for the CC animals; with an overall statistical genotype effect of P<0.01. Also importantly, the rate of fat change over time depended on ob genotype (Table 2).
# (§2) Three groups of cattle were used to evaluate the effect of leptin genotype on back fat measurements in beef cattle. Originally two groups of cattle were fed and managed with the objective of evaluating the effect of a nutritional treatment on backfat measures and were randomly assigned to dietary treatment. The third experiment was fed and managed with the objective to evaluate 1) the effect the ob gene genotype on carcass parameters, 2) the effect of ob genotype on fat growth in the live animal, and 3) any potential interaction between the beta andrenergic agonist Zilpaterol Hydrochloride and ob genotype. The original experimental design for group 1 & 2 was a randomized complete block design (RCBD) with steers being randomly assigned to block, or experimental pen, dietary treatment was included in the final statistical model detailed below. […] Group 1 was composed of 319 steers and was of mixed breed, and of either European or British descent without any representation of Bos indicus bloodlines. The breeds represented in Group 1 were Hereford, Angus, Charolais, Simmental, and Limousin. The second group included 157 Charolais cross steers. All the cattle entered the finishing period when body weight was approximately 385 kg. Group 3 was composed of 4172 steers of mixed breed, and all cattle within a block were slaughtered on a single day.
# Backfat was measured after 1, 55 and 139 days on feed for Group 1, 69, 111, and 120 days on feed for Group 2, and 1, 60, 104, and 129 days on feed for Group 3 using an Aloka 500V diagnostic ultrasound unit equipped with a 17.2 cm, 3.5 MHz linear array transducer (Overseas Monitor Corporation, Ltd., Richmond, B.C.) following the procedure described by Perkins et al., (1992). Internal calipers of the ultrasounds unit were used to measure back fat. Ultrasound images were recorded on a VHS tale (Panasonic AG-5200; Matsushita Electric of Canada, Mississauga, ON).
# Backfat was analyzed with repeated measurements at 1, 55 and 139 days on feed for Group 1, 69, 111, and 120 days on feed for Group 2, and 1, 60, 104, and 129 days on feed for Group 3 using the MIXED procedure of SAS (Wang and Goodewardene, 2004). The following model was used: […]=μ+ρi+αj+λκ+βl+(αβ)jl+(λβ)kl+eijkl. Where Yijkl is the observation for the jth treatment ration or drug status within the ith block at the kth measurement, μ is the overall mean, ρi is the fixed effect of the ith block, aj is the fixed effect of the jth treatment ration, λk is the fixed effect of the kth measurement, βl is the fixed effect for leptin genotype (GENO) and eijkl, is the normally identical and independently distributed error term. The interaction between leptin genotype and diet, (αβ)jl, and time of measurement (λβ)kl, was also tested. A heterogeneous autoregressive-one covariance structure was utilized in analysis of backfat. Least square means and standard errors for body weight and back fat were determined using the ESTIMATE statement in PROC MIXED. The SLICE option was used to estimate least square means of GENO on days of measurements with the DIFF option being used to detect differences. Significance for the main effect of GENO and pairwise comparisons was declared at P<0.05 and trends are noted P<0.10. […]
# [2] = Test 4 / Group 3 feedlot study: body weight growth of steers by leptin (ob) genotype and drug status; format: in vivo, cattle (steers of mixed breed); conditions: Drug group; for BW, lbs d 1: 1st measure; for BW, lbs d 1 / BW, lbs d 2 / BW, lbs d 3: before drug; for BW, lbs d 2: 2nd measure; for BW, lbs d 3: 3rd measure; for BW, lbs d 4: 4th measure, after drug
# Method: as §1, §2
# Backfat was analyzed with repeated measurements at 1, 55 and 139 days on feed for Group 1, 69, 111, and 120 days on feed for Group 2, and 1, 60, 104, and 129 days on feed for Group 3 using the MIXED procedure of SAS (Wang and Goodewardene, 2004). The following model was used: […]=μ+ρi+αj+λκ+βl+(αβ)jl+(λβ)kl+eijkl. Where Yijkl is the observation for the jth treatment ration or drug status within the ith block at the kth measurement, μ is the overall mean, ρi is the fixed effect of the ith block, aj is the fixed effect of the jth treatment ration, λk is the fixed effect of the kth measurement, βl is the fixed effect for leptin genotype (GENO) and eijkl, is the normally identical and independently distributed error term. The interaction between leptin genotype and diet, (αβ)jl, and time of measurement (λβ)kl, was also tested. A heterogeneous autoregressive-one covariance structure was utilized in analysis of backfat. Least square means and standard errors for body weight and back fat were determined using the ESTIMATE statement in PROC MIXED. The SLICE option was used to estimate least square means of GENO on days of measurements with the DIFF option being used to detect differences. Significance for the main effect of GENO and pairwise comparisons was declared at P<0.05 and trends are noted P<0.10. […] Within each group of cattle retrospective exponential models were fitted to the longitudinal measurements of back fat as described by Brethour (2000). The NLIN procedure of SAS was used to fit the nonlinear exponential function Y=Ae^(kt), where Y=projected backfat, A=the initial backfat, k=rate of increase, and t=time in days.
# In test 4, 4172 hd of animals randomized to treatment and pen were housed in 48 pens, such that a study was conducted to assess the effect of ob genotype on fat growth, body weight growth, and carcass parameters; as well as any potential interaction with the beta andrenergic agonist Zilpaterol. […]
# [3] = administration of exogenous leptin; mice, chickens, pigs and sheep; cited from earlier work
compound,measurement,setting,value
"CC(C)N[C@@H]1CCn2c(=O)[nH]c3cccc(c32)[C@H]1O.Cl (racemic) [Drug, Zilpaterol Hydrochloride]","AFG, mm/d (Average Daily fat gain in millimeters)",[1]; CC Genotype,0.051 mm/d
same,"Fat CH, mm: Backfat change before and after drug, difference between 3rd and 4th measure",[1]; CC Genotype,1.24 mm
same,"Fat CH, mm: Backfat change, difference between 1st and 4th measure",[1]; CC Genotype,7.30 mm
same,"Rate, 10-12",[1]; CC Genotype,0.0071
same,"Backfat, mm d 1",[1]; CC Genotype,3.46 mm
same,"Backfat, mm d 2",[1]; CC Genotype,7.44 mm
same,"Backfat, mm d 3",[1]; CC Genotype,9.60 mm
same,"Backfat, mm d 4",[1]; CC Genotype,10.7 mm
same,d to 10 mm (days needed to reach target backfat),[1]; CC Genotype,144 days
same,d to 12 mm (days needed to reach target backfat),[1]; CC Genotype,170 days
same,d to 14 mm (days needed to reach target backfat),[1]; CC Genotype,192 days
same,"Rate (k, rate of backfat; fitted nonlinear parameter)",[1]; CC Genotype,0.0069^a
same,"AFG, mm/d (Average Daily fat gain in millimeters)",[1]; CT Genotype,0.053 mm/d
same,"Fat CH, mm: Backfat change before and after drug, difference between 3rd and 4th measure",[1]; CT Genotype,1.35 mm
same,"Fat CH, mm: Backfat change, difference between 1st and 4th measure",[1]; CT Genotype,7.56 mm
same,"Rate, 10-12",[1]; CT Genotype,0.0072
same,"Backfat, mm d 1",[1]; CT Genotype,3.50 mm
same,"Backfat, mm d 2",[1]; CT Genotype,7.74 mm
same,"Backfat, mm d 3",[1]; CT Genotype,9.77 mm
same,"Backfat, mm d 4",[1]; CT Genotype,11.0 mm
same,d to 10 mm (days needed to reach target backfat),[1]; CT Genotype,135 days
same,d to 12 mm (days needed to reach target backfat),[1]; CT Genotype,160 days
same,d to 14 mm (days needed to reach target backfat),[1]; CT Genotype,182 days
same,"Rate (k, rate of backfat; fitted nonlinear parameter)","[1]; CT Genotype, Hydrochloride",0.0077^1 and 0.0071^1
same,"AFG, mm/d (Average Daily fat gain in millimeters)",[1]; TT Genotype,0.054 mm/d
same,"Fat CH, mm: Backfat change before and after drug, difference between 3rd and 4th measure",[1]; TT Genotype,1.17 mm
same,"Fat CH, mm: Backfat change, difference between 1st and 4th measure",[1]; TT Genotype,7.71 mm
same,"Rate, 10-12",[1]; TT Genotype,0.0073
same,"Backfat, mm d 1",[1]; TT Genotype,3.62 mm
same,"Backfat, mm d 2",[1]; TT Genotype,7.98 mm
same,"Backfat, mm d 3",[1]; TT Genotype,10.26 mm
same,"Backfat, mm d 4",[1]; TT Genotype,11.3 mm
same,d to 10 mm (days needed to reach target backfat),[1]; TT Genotype,126 days
same,d to 12 mm (days needed to reach target backfat),[1]; TT Genotype,151 days
same,d to 14 mm (days needed to reach target backfat),[1]; TT Genotype,173 days
same,"Rate (k, rate of backfat; fitted nonlinear parameter)",[1]; TT Genotype,0.0075^bc
same,"ADG, lbs/d (Average daily live bodyweight gain in pounds)",[2]; CC Genotype,3.51 lbs/d
same,"BWCH, lbs: Body weight change before and after drug, difference between 3rd and 4th measure",[2]; CC Genotype,72.1 lbs
same,"BWCH, lbs: Body weight change, difference between 1st and 4th measure",[2]; CC Genotype,500.5 lbs
same,"BW, lbs d 1",[2]; CC Genotype,893.4 lbs
same,"BW, lbs d 2",[2]; CC Genotype,1181.1 lbs
same,"BW, lbs d 3",[2]; CC Genotype,1325.0 lbs
same,"BW, lbs d 4",[2]; CC Genotype,1394.8 lbs
same,"ADG, lbs/d (Average daily live bodyweight gain in pounds)",[2]; CT Genotype,3.64 lbs/d
same,"BWCH, lbs: Body weight change before and after drug, difference between 3rd and 4th measure",[2]; CT Genotype,93.8 lbs
same,"BWCH, lbs: Body weight change, difference between 1st and 4th measure",[2]; CT Genotype,518.9 lbs
same,"BW, lbs d 1",[2]; CT Genotype,890.3 lbs
same,"BW, lbs d 2",[2]; CT Genotype,1197.3 lbs
same,"BW, lbs d 3",[2]; CT Genotype,1317.1 lbs
same,"BW, lbs d 4",[2]; CT Genotype,1407.6 lbs
same,"ADG, lbs/d (Average daily live bodyweight gain in pounds)",[2]; TT Genotype,3.60 lbs/d
same,"BWCH, lbs: Body weight change before and after drug, difference between 3rd and 4th measure",[2]; TT Genotype,75.8 lbs
same,"BWCH, lbs: Body weight change, difference between 1st and 4th measure",[2]; TT Genotype,512.4 lbs
same,"BW, lbs d 1",[2]; TT Genotype,890.6 lbs
same,"BW, lbs d 2",[2]; TT Genotype,1191.9 lbs
same,"BW, lbs d 3",[2]; TT Genotype,1330.0 lbs
same,"BW, lbs d 4",[2]; TT Genotype,1399.0 lbs
leptin: 16-kDa adipocyte-specific polypeptide encoded by the ob (obese) gene,body mass,[3],dramatically reduces
same,feed intake,[3],dramatically reduces
